Several values for one entry are separate records, joined by “and”; a condition that tells them apart may be missing. Equal entries are not always repeated. Activity calls are given as the source filed them. The rule behind the calls is not given here.
Test system: rodent lifetime carcinogenesis bioassay, tumor incidence TD50
Test: carcinogenic potency in animals, long-term in vivo studies, CPDB compilation (AID 1745844)

Cc1cc2c(nc1N)[nH]c1ccccc12
TD50 (mouse, strain CDF1, females, in feed, site: blood vessels, lesion: hemangioendothelial sarcoma, dosed 84 weeks, study length 84 weeks): 38.6 mg/kg/day
TD50 (mouse, strain CDF1, females, in feed, site: liver, lesion: hepatocellular adenoma, dosed 84 weeks, study length 84 weeks): 118 mg/kg/day
TD50 (mouse, strain CDF1, females, in feed, site: liver, lesion: hepatocellular carcinoma, dosed 84 weeks, study length 84 weeks): 98.9 mg/kg/day
TD50 (mouse, strain CDF1, females, in feed, site: liver, lesion: several types, types named in the paper, dosed 84 weeks, study length 84 weeks): 38.6 mg/kg/day
TD50 (mouse, strain CDF1, females, in feed, site: lung, lesion: adenoma, dosed 84 weeks, study length 84 weeks): 1840 mg/kg/day
TD50 (mouse, strain CDF1, males, in feed, site: blood vessels, lesion: hemangioendothelial sarcoma, dosed 73 weeks, study length 73 weeks): 15.6 mg/kg/day
TD50 (mouse, strain CDF1, males, in feed, site: liver, lesion: hepatocellular adenoma, dosed 73 weeks, study length 73 weeks): 90.9 mg/kg/day
TD50 (mouse, strain CDF1, males, in feed, site: liver, lesion: hepatocellular carcinoma, dosed 73 weeks, study length 73 weeks): 127 mg/kg/day
TD50 (mouse, strain CDF1, males, in feed, site: liver, lesion: several types, types named in the paper, dosed 73 weeks, study length 73 weeks): 43.5 mg/kg/day
TD50 (mouse, strain CDF1, males, in feed, site: lung, lesion: adenoma, dosed 73 weeks, study length 73 weeks): 1180 mg/kg/day
TD50 (rat, strain F344/DuCrj, males, in feed, site: liver, lesion: hepatocellular carcinoma, dosed 100 weeks, study length 100 weeks): 11.7 mg/kg/day
TD50 (rat, strain F344/DuCrj, males, in feed, site: pancreas, lesion: acinar-cell adenoma, dosed 100 weeks, study length 100 weeks): 8.7 mg/kg/day
TD50 (rat, strain F344/DuCrj, males, in feed, site: pancreatic islets, lesion: islet-cell adenoma, dosed 100 weeks, study length 100 weeks): 48.1 mg/kg/day
TD50 (rat, strain F344/DuCrj, males, in feed, site: salivary gland, lesion: fibrosarcoma, dosed 100 weeks, study length 100 weeks): 73.5 mg/kg/day
TD50 (rat, strain F344/DuCrj, males, in feed, site: subcutaneous tissue, lesion: fibroma, dosed 100 weeks, study length 100 weeks): 6.7 mg/kg/day
TD50 (rat, strain F344/DuCrj, males, in feed, site: urinary bladder, lesion: transitional-cell carcinoma, dosed 100 weeks, study length 100 weeks): 28.6 mg/kg/day

CC(C)CCCCCOC(=O)COc1ccc(Cl)cc1Cl
carcinogen call (mouse, strain B6AKF1, females, oral dosing, site: any site (literature study), lesion: several types, types named in the paper, dosed 76 weeks, study length 76 weeks): negative (inactive)
carcinogen call (mouse, strain B6AKF1, females, oral dosing, site: liver, lesion: hepatoma, dosed 76 weeks, study length 76 weeks): negative (inactive)
carcinogen call (mouse, strain B6AKF1, females, oral dosing, site: lung, lesion: adenoma, dosed 76 weeks, study length 76 weeks): negative (inactive)
carcinogen call (mouse, strain B6AKF1, males, oral dosing, site: any site (literature study), lesion: several types, types named in the paper, dosed 76 weeks, study length 76 weeks): negative (inactive)
carcinogen call (mouse, strain B6AKF1, males, oral dosing, site: liver, lesion: hepatoma, dosed 76 weeks, study length 76 weeks): negative (inactive)
carcinogen call (mouse, strain B6AKF1, males, oral dosing, site: lung, lesion: several types, types named in the paper, dosed 76 weeks, study length 76 weeks): negative (inactive)
TD50 (mouse, strain B6C3F1, females, oral dosing, site: any site (literature study), lesion: several types, types named in the paper, dosed 76 weeks, study length 76 weeks): 24.6 mg/kg/day (inactive)
carcinogen call (mouse, strain B6C3F1, females, oral dosing, site: liver, lesion: hepatoma, dosed 76 weeks, study length 76 weeks): negative (inactive)
TD50 (mouse, strain B6C3F1, females, oral dosing, site: lung, lesion: adenoma, dosed 76 weeks, study length 76 weeks): 34 mg/kg/day (inactive)
TD50 (mouse, strain B6C3F1, males, oral dosing, site: any site (literature study), lesion: several types, types named in the paper, dosed 76 weeks, study length 76 weeks): 17.7 mg/kg/day (inactive)
TD50 (mouse, strain B6C3F1, males, oral dosing, site: liver, lesion: hepatoma, dosed 76 weeks, study length 76 weeks): 31.7 mg/kg/day (inactive)
carcinogen call (mouse, strain B6C3F1, males, oral dosing, site: lung, lesion: several types, types named in the paper, dosed 76 weeks, study length 76 weeks): negative (inactive)

CC(O)COC(C)(C)C (stereo not drawn)
TD50 (mouse, strain B6C3F1, females, inhaled, site: any site (literature study), lesion: several types, types named in the paper, dosed 104 weeks, study length 104 weeks): 8120 mg/kg/day
TD50 (mouse, strain B6C3F1, females, inhaled, site: liver, lesion: hepatocellular adenoma + hepatoblastoma + hepatocellular carcinoma, dosed 104 weeks, study length 104 weeks): 1780 mg/kg/day
TD50 (mouse, strain B6C3F1, females, inhaled, site: liver, lesion: hepatocellular adenoma + hepatocellular carcinoma, dosed 104 weeks, study length 104 weeks): 1780 mg/kg/day
TD50 (mouse, strain B6C3F1, females, inhaled, site: liver, lesion: hepatocellular adenoma, dosed 104 weeks, study length 104 weeks): 1780 mg/kg/day
TD50 (mouse, strain B6C3F1, males, inhaled, site: any site (literature study), lesion: several types, types named in the paper, dosed 104 weeks, study length 104 weeks): 7930 mg/kg/day
TD50 (mouse, strain B6C3F1, males, inhaled, site: liver, lesion: hepatoblastoma, dosed 104 weeks, study length 104 weeks): 9320 mg/kg/day
TD50 (mouse, strain B6C3F1, males, inhaled, site: liver, lesion: hepatocellular adenoma + hepatoblastoma + hepatocellular carcinoma, dosed 104 weeks, study length 104 weeks): 1980 mg/kg/day
TD50 (mouse, strain B6C3F1, males, inhaled, site: liver, lesion: hepatocellular adenoma + hepatocellular carcinoma, dosed 104 weeks, study length 104 weeks): 1980 mg/kg/day
TD50 (mouse, strain B6C3F1, males, inhaled, site: liver, lesion: hepatocellular adenoma, dosed 104 weeks, study length 104 weeks): 1970 mg/kg/day
carcinogen call (rat, strain Fischer 344, females, inhaled, site: any site (literature study), lesion: several types, types named in the paper, dosed 104 weeks, study length 104 weeks): negative (inactive)
TD50 (rat, strain Fischer 344, females, inhaled, site: liver, lesion: hepatocellular adenoma + hepatoblastoma + hepatocellular carcinoma, dosed 104 weeks, study length 104 weeks): 10500 mg/kg/day
TD50 (rat, strain Fischer 344, males, inhaled, site: any site (literature study), lesion: several types, types named in the paper, dosed 104 weeks, study length 104 weeks): 683 mg/kg/day
TD50 (rat, strain Fischer 344, males, inhaled, site: kidney, lesion: tubule adenoma + tubule carcinoma, dosed 104 weeks, study length 104 weeks): 2280 mg/kg/day and 2650 mg/kg/day
TD50 (rat, strain Fischer 344, males, inhaled, site: kidney, lesion: tubule adenoma, dosed 104 weeks, study length 104 weeks): 4480 mg/kg/day and 3800 mg/kg/day
TD50 (rat, strain Fischer 344, males, inhaled, site: liver, lesion: hepatocellular adenoma + hepatoblastoma + hepatocellular carcinoma, dosed 104 weeks, study length 104 weeks): 1450 mg/kg/day
TD50 (rat, strain Fischer 344, males, inhaled, site: liver, lesion: hepatocellular adenoma, dosed 104 weeks, study length 104 weeks): 1450 mg/kg/day
TD50 (rat, strain Fischer 344, males, inhaled, site: skin, lesion: basal-cell adenoma + basal-cell carcinoma, dosed 104 weeks, study length 104 weeks): 1510 mg/kg/day
TD50 (rat, strain Fischer 344, males, inhaled, site: skin, lesion: basal-cell adenoma, dosed 104 weeks, study length 104 weeks): 2070 mg/kg/day

[O]=[Cr](=[O])([OH])[O][Cr](=[O])(=[O])[OH]
TD50 (rat, strain Wistar, males, inhaled, site: any site (literature study), lesion: several types, types named in the paper, dosed 78 weeks, study length 130 weeks): 0.875 mg/kg/day
TD50 (rat, strain Wistar, males, inhaled, site: liver, lesion: malignant tumor, dosed 78 weeks, study length 130 weeks): 14.4 mg/kg/day
TD50 (rat, strain Wistar, males, inhaled, site: lung, lesion: adenocarcinoma, dosed 78 weeks, study length 130 weeks): 7.07 mg/kg/day
TD50 (rat, strain Wistar, males, inhaled, site: lung, lesion: adenoma, dosed 78 weeks, study length 130 weeks): 14.4 mg/kg/day
TD50 (rat, strain Wistar, males, inhaled, site: lung, lesion: several types, types named in the paper, dosed 78 weeks, study length 130 weeks): 4.64 mg/kg/day
TD50 (rat, strain Wistar, males, inhaled, site: pharynx, lesion: squamous-cell carcinoma, dosed 78 weeks, study length 130 weeks): 14.4 mg/kg/day

CCCCC1(COC(=O)CCC(=O)O)C(=O)N(c2ccccc2)N(c2ccccc2)C1=O
carcinogen call (rat, strain F344/DuCrj, females, in feed, site: liver, lesion: one or several types, types not named, dosed 104 weeks, study length 104 weeks): negative (inactive)
TD50 (rat, strain F344/DuCrj, males, in feed, site: adrenal gland, lesion: pheochromocytoma, dosed 104 weeks, study length 104 weeks): 471 mg/kg/day (inactive)
carcinogen call (rat, strain F344/DuCrj, males, in feed, site: liver, lesion: hepatocellular adenoma, dosed 104 weeks, study length 104 weeks): negative (inactive)
carcinogen call (rat, strain F344/DuCrj, males, in feed, site: liver, lesion: hepatocellular carcinoma, dosed 104 weeks, study length 104 weeks): negative (inactive)

CC(=O)Nc1ccc(S(=O)(=O)c2ccc(NC(C)=O)cc2)cc1
TD50 (rat, strain Buffalo, females, in feed, site: mammary gland, lesion: adenocarcinoma, dosed 43 weeks, study length 92 weeks): 55.6 mg/kg/day

N[C@@H](CCC(=O)NNc1ccc(C(=O)O)cc1)C(=O)O
TD50 (mouse, strain Swiss albino, females, by gavage, site: liver, lesion: several types, types named in the paper, dosed 52 weeks, study length 133 weeks): 41400 mg/kg/day
TD50 (mouse, strain Swiss albino, males, by gavage, site: lung, lesion: several types, types named in the paper, dosed 52 weeks, study length 133 weeks): 250 mg/kg/day
TD50 (mouse, strain Swiss albino, males, by gavage, site: subcutaneous tissue, lesion: fibrosarcoma, dosed 52 weeks, study length 133 weeks): 277 mg/kg/day

CC(=O)Oc1ccccc1C(=O)O
carcinogen call (mouse, strain C57BL/6, females, in feed, site: liver, lesion: one or several types, types not named, dosed 77 weeks, study length 77 weeks): negative (inactive)
carcinogen call (mouse, strain C57BL/6, males, in feed, site: liver, lesion: one or several types, types not named, dosed 77 weeks, study length 77 weeks): negative (inactive)
carcinogen call (rat, strain Fischer 344, males, in feed, site: colon, lesion: one or several types, types not named, dosed 56 weeks, study length 56 weeks): negative (inactive)
TD50 (rat, strain Fischer 344, males, in feed, site: urinary bladder, lesion: papilloma, dosed 68 weeks, study length 68 weeks): 1670 mg/kg/day
carcinogen call (rat, strain Wistar, males, in feed, site: liver, lesion: one or several types, types not named, dosed 52 weeks, study length 52 weeks): negative (inactive)
carcinogen call (rat, strain albino, both sexes, by gavage, site: forestomach, lesion: one or several types, types not named, dosed 78 weeks, study length 78 weeks): negative (inactive)
carcinogen call (rat, strain albino, both sexes, by gavage, site: stomach, glandular, lesion: one or several types, types not named, dosed 78 weeks, study length 78 weeks): negative (inactive)

O=[N+]([O-])c1cccc2ccccc12
carcinogen call (mouse, strain B6C3F1, females, in feed, site: any site (literature study), lesion: several types, types named in the paper, dosed 78 weeks, study length 96 weeks): negative (inactive)
TD50 (mouse, strain B6C3F1, females, in feed, site: lung, lesion: alveolar/bronchiolar adenoma + alveolar/bronchiolar carcinoma, dosed 78 weeks, study length 96 weeks): 682 mg/kg/day
carcinogen call (mouse, strain B6C3F1, males, in feed, site: any site (literature study), lesion: several types, types named in the paper, dosed 78 weeks, study length 96 weeks): negative (inactive)
carcinogen call (rat, strain Fischer 344, females, in feed, site: any site (literature study), lesion: several types, types named in the paper, dosed 78 weeks, study length 107 weeks): negative (inactive)
carcinogen call (rat, strain Fischer 344, males, in feed, site: any site (literature study), lesion: several types, types named in the paper, dosed 78 weeks, study length 107 weeks): negative (inactive)
TD50 (rat, strain Fischer 344, males, in feed, site: liver, lesion: hepatocellular adenoma + hepatocellular carcinoma + neoplastic nodule, dosed 78 weeks, study length 107 weeks): 509 mg/kg/day

Reference: PubChem BioAssay AID1745844 (Carcinogenic Potency Database (CPDB), 2022)
